In patent publication US20240252557A1, “MULTIBIOTIC SUPPLEMENTS” (Natals, Inc., priority 2023, published 2024):

Tested on: Caco-2/THP1-Blue cell co-cultures
Experiment: Transepithelial electrical resistance (TEER) of Caco-2/THP1-Blue co-cultures, model of mild intestinal barrier disruption
Type: cell-based, human
Settings: 48 h colonic fermentation samples, filtered and sterilized; TEER after 24 h
Source text: This study used an in vitro cell co-culture to create a model of mild intestinal barrier disruption. This method utilizes a co-culture model of intestinal epithelial-like cells (Caco-2 cells) and human monocytes/macrophages (THP1 cells) and is based on the work of Satsu and colleagues (PMID: 17010338) and is described by Daguet et al. (doi: 10.1016r.jff.2015.11.005). Caco-2 cells are allowed to grow into a monolayer that has physiological properties of the intestinal lining, including tight junctions. Tight junction proteins keep adjacent epithelial cells together, which forms a barrier that is virtually impermeable to macromolecules. The “tightness” of tight junctions can be measured as transepithelial electrical resistance (TEER), with a high TEER corresponding to a tighter barrier. THP1 monocytes were originally isolated from a human patient with acute leukemia. When stimulated with phorbol 12-myristate 13-acetate (PMA), these cells develop into macrophage-like cells that are able to adhere and are primed for toll-like receptor (TLR) signaling. […] TEER was measured after pre-treatment of the cell co-cultures, representing a baseline (0 hour) value. […] Changes in TEER values were measured after 24 hours.
TEER was measured 24 h after pre-treatment of the co-cultures and each 24 h value was normalized to its corresponding Oh value and is shown as percentage of initial value. […]

CCCC(=O)OCC(COC(=O)CCC)OC(=O)CCC [tributyrin]
barrier integrity (TEER) compared to the blank control: improved barrier integrity
